Data as given in paper PMC8080530, “Glucocorticoid receptor Thr524 phosphorylation by MINK1 induces interactions with 14-3-3 protein regulators” (The Journal of Biological Chemistry, 2021).
Like-named read-outs stand apart in the source and are kept apart here. Non-standard residues stand in square brackets, D forms with d. Residues, ends and D or L forms follow the SMILES beside them. *: point of attachment. 6FAM = O=C1OC2(c3ccc(O)cc3Oc3cc(O)ccc32)c2cc(C(=O)*)ccc21; pT = C[C@@H](OP(=O)(O)O)[C@H](N)C(=O)O; pS = N[C@@H](COP(=O)(O)O)C(=O)O

Target: T1, 14-3-3ζ (Homo sapiens, UniProt P63104)
T1 construct: Full-length expression and purification of 14-3-3; made in house; host or cells: E. coli BL21 (DE3)STAR
T1 sequence (P63104 1-245): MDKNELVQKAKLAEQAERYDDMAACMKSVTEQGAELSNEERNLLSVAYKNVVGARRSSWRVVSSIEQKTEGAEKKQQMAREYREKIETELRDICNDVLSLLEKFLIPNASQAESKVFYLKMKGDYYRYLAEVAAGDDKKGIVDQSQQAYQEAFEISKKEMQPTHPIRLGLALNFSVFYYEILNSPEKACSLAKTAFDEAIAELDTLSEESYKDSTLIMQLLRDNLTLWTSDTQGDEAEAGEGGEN
Experiment: FP assay with GR phosphorylated peptides and 14-3-3ζ
Type: binding
Method: After 30-min incubation at RT, the plates were read on a plate reader PHERAstar (BMG LABTECH GmbH) for FP signal using […] and standard excitation (485 nm) and emission (520 nm). Measurements were performed as triplicates. Binding data were fit to a standard Hill equation using the software Genedata Screener. The figures were made using the software GraphPad Prism 8. FP data were expressed as millipolarization (mP) units, and the dynamic range (ΔmP) was the difference of the signals from the bound peptide and free peptide. Errors are the standard error of the fit.

[1] = read-out: PKd with 14-3-3ζ (converted)
[2] = FITC-labeled peptide 60 nM (monophosphorylated) or 10 nM (doubly phosphorylated) titrated with 14-3-3ζ, 30 min RT, Hill fit, triplicates, read-out: Kd with 14-3-3ζ by FP

Compound: CC[C@H](C)[C@H](NC(=O)[C@@H](NC(=O)[C@@H](N)CCCCN)[C@@H](C)O)C(=O)N[C@H](C(=O)N1CCC[C@H]1C(=O)N[C@@H](C)C(=O)N[C@H](C(=O)N[C@@H](CC(C)C)C(=O)N1CCC[C@H]1C(=O)N[C@@H](CCC(N)=O)C(=O)N[C@@H](CC(C)C)C(=O)N[C@H](C(=O)N1CCC[C@H]1C(=O)NCC(=O)NCC(=O)NCC(=O)NCC(=O)NCC(=O)N[C@@H](CCCNC(=N)N)C(=O)N[C@@H](CO)C(=O)N[C@@H](Cc1ccc(O)cc1)C(=O)N[C@@H](CCCNC(=N)N)C(=O)N[C@@H](CCC(N)=O)C(=O)N[C@@H](C)C(=O)N[C@@H](COP(=O)(O)O)C(=O)N[C@@H](C)C(=O)N[C@@H](CC(N)=O)C(=O)N[C@@H](CC(C)C)C(=O)N[C@@H](CC(C)C)C(=O)N[C@@H](CS)C(=O)N[C@@H](Cc1ccccc1)C(=O)O)[C@@H](C)O)[C@@H](C)OP(=O)(O)O)C(C)C [GR_S616A] (H-KTIVPA[pT]LPQLTPGGGGGRSYRQA[pS]ANLLCF-OH)
- Kd [1]: 63.1 nM

Compound: CC[C@H](C)[C@H](NC(=O)[C@@H](NC(=O)[C@@H](N)CCCCN)[C@@H](C)O)C(=O)N[C@H](C(=O)N1CCC[C@H]1C(=O)N[C@@H](C)C(=O)N[C@H](C(=O)N[C@@H](CC(C)C)C(=O)N1CCC[C@H]1C(=O)N[C@@H](CCC(N)=O)C(=O)N[C@@H](CC(C)C)C(=O)N[C@H](C(=O)N1CCC[C@H]1C(=O)NCC(=O)NCC(=O)NCC(=O)NCC(=O)NCC(=O)N[C@@H](CCCNC(=N)N)C(=O)N[C@@H](CO)C(=O)N[C@@H](Cc1ccc(O)cc1)C(=O)N[C@@H](CCCNC(=N)N)C(=O)N[C@@H](CCC(N)=O)C(=O)N[C@@H](CO)C(=O)N[C@@H](COP(=O)(O)O)C(=O)N[C@@H](C)C(=O)N[C@@H](CC(N)=O)C(=O)N[C@@H](C)C(=O)N[C@@H](CC(C)C)C(=O)N[C@@H](CS)C(=O)N[C@@H](Cc1ccccc1)C(=O)O)[C@@H](C)O)[C@@H](C)OP(=O)(O)O)C(C)C [GR_L620A] (H-KTIVPA[pT]LPQLTPGGGGGRSYRQS[pS]ANALCF-OH)
- Kd [1]: 50.1 nM

Compound: CC[C@H](C)[C@H](NC(=O)[C@@H](NC(=O)[C@@H](N)CCCCN)[C@@H](C)O)C(=O)N[C@H](C(=O)N1CCC[C@H]1C(=O)N[C@@H](C)C(=O)N[C@H](C(=O)N[C@@H](CC(C)C)C(=O)N[C@@H](C)C(=O)N[C@@H](CCC(N)=O)C(=O)N[C@@H](CC(C)C)C(=O)N[C@H](C(=O)N1CCC[C@H]1C(=O)NCC(=O)NCC(=O)NCC(=O)NCC(=O)NCC(=O)N[C@@H](CCCNC(=N)N)C(=O)N[C@@H](CO)C(=O)N[C@@H](Cc1ccc(O)cc1)C(=O)N[C@@H](CCCNC(=N)N)C(=O)N[C@@H](CCC(N)=O)C(=O)N[C@@H](CO)C(=O)N[C@@H](COP(=O)(O)O)C(=O)N[C@@H](C)C(=O)N[C@@H](CC(N)=O)C(=O)N[C@@H](CC(C)C)C(=O)N[C@@H](CC(C)C)C(=O)N[C@@H](CS)C(=O)N[C@@H](Cc1ccccc1)C(=O)O)[C@@H](C)O)[C@@H](C)OP(=O)(O)O)C(C)C [GR_P526A] (H-KTIVPA[pT]LAQLTPGGGGGRSYRQS[pS]ANLLCF-OH)
- Kd [1]: 1260 nM

Compound: CC(C)C[C@H](NC(=O)[C@H](CC(=O)O)NC(=O)[C@H](CO)NC(=O)[C@H](CCCNC(=N)N)NC(=O)[C@H](Cc1c[nH]c2ccccc12)NC(=O)[C@@H]1CCCN1C(=O)[C@H](COP(=O)(O)O)NC(=O)[C@H](CCC(=O)O)NC(=O)[C@H](CC(N)=O)NC(=O)[C@@H](NC(=O)[C@H](CCC(=O)O)NC(=O)[C@H](CCCCN)NC(=O)CN)[C@@H](C)O)C(=O)O [GR_pS211] (H-GKETNE[pS]PWRSDL-OH; N-terminus assumed)
- Kd [2]: > 150000 nM

Compound: CC(C)C[C@H](NC(=O)[C@H](CS)NC(=O)[C@H](CC(N)=O)NC(=O)[C@H](CCC(=O)O)NC(=O)[C@@H](N)CC(=O)O)C(=O)N[C@@H](CC(C)C)C(=O)N[C@@H](COP(=O)(O)O)C(=O)N1CCC[C@H]1C(=O)N[C@@H](CC(C)C)C(=O)N[C@@H](C)C(=O)NCC(=O)N[C@@H](CCC(=O)O)C(=O)N[C@@H](CC(=O)O)C(=O)O [GR_pS226] (H-DENCLL[pS]PLAGED-OH; N-terminus assumed)
- Kd [2]: > 150000 nM

Compound: CSCC[C@H](NC(=O)[C@H](CO)NC(=O)[C@H](CC(C)C)NC(=O)[C@H](COP(=O)(O)O)NC(=O)[C@@H](NC(=O)[C@H](C)NC(=O)[C@H](CCCCN)NC(=O)[C@H](CO)NC(=O)[C@H](CC(C)C)NC(=O)[C@H](CC(=O)O)NC(=O)c1ccc2c(c1)C1(OC2=O)c2ccc(O)cc2Oc2cc(O)ccc21)C(C)C)C(=O)NCC(=O)N[C@@H](CC(C)C)C(=O)N[C@@H](Cc1ccc(O)cc1)C(=O)NCC(=O)NCC(=O)NCC(=O)NCC(=O)NCC(=O)N[C@@H](CC(N)=O)C(=O)N[C@@H](CC(C)C)C(=O)N[C@@H](CC(N)=O)C(=O)N[C@@H](CCCNC(=N)N)C(=O)N[C@@H](CO)C(=O)N[C@H](C(=O)N[C@@H](COP(=O)(O)O)C(=O)N[C@H](C(=O)N1CCC[C@H]1C(=O)N[C@@H](CCC(=O)O)C(=O)N[C@@H](CC(N)=O)C(=O)N1CCC[C@H]1C(=O)N[C@@H](CCCCN)C(=O)O)C(C)C)[C@@H](C)O [GR_pS83-pS134] (6FAM-DLSKAV[pS]LSMGLYGGGGGNLNRST[pS]VPENPK-OH; C-terminus assumed)
- Kd [2]: 22000 ± 8000 nM
- fold decrease in binding affinity with 14-3-3ζ relative to GR_pT524-pS617 (ratio of Kd values): at least 15 fold

Compound: CSCC[C@H](N)C(=O)N[C@@H](CCCNC(=N)N)C(=O)N1CCC[C@H]1C(=O)N[C@@H](CC(=O)O)C(=O)N[C@H](C(=O)N[C@@H](CO)C(=O)N[C@@H](COP(=O)(O)O)C(=O)N1CCC[C@H]1C(=O)N1CCC[C@H]1C(=O)N[C@@H](CO)C(=O)N[C@@H](CO)C(=O)N[C@@H](CO)C(=O)N[C@@H](CO)C(=O)O)C(C)C [GR_pS404] (H-MRPDVS[pS]PPSSSS-OH; N-terminus assumed)
- Kd [2]: > 150000 nM

Compound: CC[C@H](C)[C@H](NC(=O)[C@@H](NC(=O)[C@@H](N)CCCCN)[C@@H](C)O)C(=O)N[C@H](C(=O)N1CCC[C@H]1C(=O)N[C@@H](C)C(=O)N[C@H](C(=O)N[C@@H](CC(C)C)C(=O)N1CCC[C@H]1C(=O)N[C@@H](CCC(N)=O)C(=O)N[C@@H](CC(C)C)C(=O)N[C@H](C(=O)N1CCC[C@H]1C(=O)NCC(=O)NCC(=O)NCC(=O)NCC(=O)NCC(=O)N[C@@H](CCCNC(=N)N)C(=O)N[C@@H](CO)C(=O)N[C@@H](C)C(=O)N[C@@H](CCCNC(=N)N)C(=O)N[C@@H](CCC(N)=O)C(=O)N[C@@H](CO)C(=O)N[C@@H](COP(=O)(O)O)C(=O)N[C@@H](C)C(=O)N[C@@H](CC(N)=O)C(=O)N[C@@H](CC(C)C)C(=O)N[C@@H](CC(C)C)C(=O)N[C@@H](CS)C(=O)N[C@@H](Cc1ccccc1)C(=O)O)[C@@H](C)O)[C@@H](C)OP(=O)(O)O)C(C)C [GR_Y613A] (H-KTIVPA[pT]LPQLTPGGGGGRSARQS[pS]ANLLCF-OH)
- Kd [1]: 79.4 nM

Compound: CC[C@H](C)[C@H](NC(=O)[C@@H](NC(=O)[C@@H](N)CCCCN)[C@@H](C)O)C(=O)N[C@H](C(=O)N1CCC[C@H]1C(=O)N[C@@H](C)C(=O)N[C@H](C(=O)N[C@@H](CC(C)C)C(=O)N1CCC[C@H]1C(=O)N[C@@H](CCC(N)=O)C(=O)N[C@@H](CC(C)C)C(=O)N[C@H](C(=O)N1CCC[C@H]1C(=O)NCC(=O)NCC(=O)NCC(=O)NCC(=O)NCC(=O)N[C@@H](CCCNC(=N)N)C(=O)N[C@@H](CO)C(=O)N[C@@H](Cc1ccc(O)cc1)C(=O)N[C@@H](CCCNC(=N)N)C(=O)N[C@@H](CCC(N)=O)C(=O)N[C@@H](CO)C(=O)N[C@@H](COP(=O)(O)O)C(=O)N[C@@H](C)C(=O)N[C@@H](CC(N)=O)C(=O)N[C@@H](CC(C)C)C(=O)N[C@@H](C)C(=O)N[C@@H](CS)C(=O)N[C@@H](Cc1ccccc1)C(=O)O)[C@@H](C)O)[C@@H](C)OP(=O)(O)O)C(C)C [GR_L621A] (H-KTIVPA[pT]LPQLTPGGGGGRSYRQS[pS]ANLACF-OH)
- Kd [1]: 39.8 nM

Compound: CC[C@H](C)[C@H](NC(=O)[C@@H](NC(=O)[C@@H](N)CCCCN)[C@@H](C)O)C(=O)N[C@H](C(=O)N1CCC[C@H]1C(=O)N[C@@H](C)C(=O)N[C@H](C(=O)N[C@@H](C)C(=O)N1CCC[C@H]1C(=O)N[C@@H](CCC(N)=O)C(=O)N[C@@H](CC(C)C)C(=O)N[C@H](C(=O)N1CCC[C@H]1C(=O)NCC(=O)NCC(=O)NCC(=O)NCC(=O)NCC(=O)N[C@@H](CCCNC(=N)N)C(=O)N[C@@H](CO)C(=O)N[C@@H](Cc1ccc(O)cc1)C(=O)N[C@@H](CCCNC(=N)N)C(=O)N[C@@H](CCC(N)=O)C(=O)N[C@@H](CO)C(=O)N[C@@H](COP(=O)(O)O)C(=O)N[C@@H](C)C(=O)N[C@@H](CC(N)=O)C(=O)N[C@@H](CC(C)C)C(=O)N[C@@H](CC(C)C)C(=O)N[C@@H](CS)C(=O)N[C@@H](Cc1ccccc1)C(=O)O)[C@@H](C)O)[C@@H](C)OP(=O)(O)O)C(C)C [GR_L525A] (H-KTIVPA[pT]APQLTPGGGGGRSYRQS[pS]ANLLCF-OH)
- Kd [1]: 63.1 nM

Compound: CC[C@H](C)[C@H](NC(=O)[C@@H](NC(=O)[C@@H](N)CCCCN)[C@@H](C)O)C(=O)N[C@H](C(=O)N1CCC[C@H]1C(=O)N[C@@H](C)C(=O)N[C@H](C(=O)N[C@@H](CC(C)C)C(=O)N1CCC[C@H]1C(=O)N[C@@H](C)C(=O)N[C@@H](CC(C)C)C(=O)N[C@H](C(=O)N1CCC[C@H]1C(=O)NCC(=O)NCC(=O)NCC(=O)NCC(=O)NCC(=O)N[C@@H](CCCNC(=N)N)C(=O)N[C@@H](CO)C(=O)N[C@@H](Cc1ccc(O)cc1)C(=O)N[C@@H](CCCNC(=N)N)C(=O)N[C@@H](CCC(N)=O)C(=O)N[C@@H](CO)C(=O)N[C@@H](COP(=O)(O)O)C(=O)N[C@@H](C)C(=O)N[C@@H](CC(N)=O)C(=O)N[C@@H](CC(C)C)C(=O)N[C@@H](CC(C)C)C(=O)N[C@@H](CS)C(=O)N[C@@H](Cc1ccccc1)C(=O)O)[C@@H](C)O)[C@@H](C)OP(=O)(O)O)C(C)C [GR_Q527A] (H-KTIVPA[pT]LPALTPGGGGGRSYRQS[pS]ANLLCF-OH)
- Kd [1]: 31.6 nM
